PubChem BioAssay (NCI)
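Protocol summary: plate cells (96-well), add compound at 5 concentrations, incubate 48 h, interpolate endpoints linearly. GI50 = concentration required for 50% inhibition of growth. TGI is the concentration that stops growth completely.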

Assays:
Assay in all cases: inhibition of tumour cell growth, NCI panel, 48 h
786-0 renal = system: 786-0 renal
A549 NSCLC = system: A549 NSCLC
ACHN renal = system: ACHN renal
BT-549 breast = system: BT-549 breast
CAKI-1 renal = system: CAKI-1 renal
CCRF-CEM leukemia = system: CCRF-CEM leukemia
COLO 205 colon = system: COLO 205 colon
DU-145 prostate = system: DU-145 prostate
EKVX NSCLC = system: EKVX NSCLC
HCC-2998 colon = system: HCC-2998 colon
HCT-116 colon = system: HCT-116 colon
HCT-15 colon = system: HCT-15 colon
HL-60(TB) leukemia = system: HL-60(TB) leukemia
HOP-62 NSCLC = system: HOP-62 NSCLC
HOP-92 NSCLC = system: HOP-92 NSCLC
HS 578T breast = system: HS 578T breast
HT29 colon = system: HT29 colon
IGROV1 ovarian = system: IGROV1 ovarian
K-562 leukemia = system: K-562 leukemia
KM12 colon = system: KM12 colon
LOX IMVI melanoma = system: LOX IMVI melanoma
M14 melanoma = system: M14 melanoma
MALME-3M melanoma = system: MALME-3M melanoma
MCF7 breast = system: MCF7 breast
MDA-MB-231 breast = system: MDA-MB-231 breast
MDA-MB-435 = system: MDA-MB-435
MOLT-4 leukemia = system: MOLT-4 leukemia
NCI-H226 lung = system: NCI-H226 lung

**Q.** With `COC(=O)c1ccc(NC(=O)Nc2ccc3oc(=O)c4ccccc4c3c2)cc1` as the compound, how does the GI50 (786-0 renal) read?
**A.** 18 µM

**Q.** What about the TGI (786-0 renal) of the same compound?
**A.** 41.9 µM

**Q.** And the GI50 (A549 NSCLC)?
**A.** > 100 µM

**Q.** What about the TGI (A549 NSCLC) of the same compound?
**A.** > 100 µM

**Q.** What about the GI50 (ACHN renal) of the same compound?
**A.** 29.5 µM

**Q.** And the TGI (ACHN renal)?
**A.** > 100 µM

**Q.** And the GI50 (BT-549 breast)?
**A.** 28.1 µM

**Q.** What about the TGI (BT-549 breast) of the same compound?
**A.** > 100 µM

**Q.** And the GI50 (CAKI-1 renal)?
**A.** 70.9 µM

**Q.** And the TGI (CAKI-1 renal)?
**A.** > 100 µM

**Q.** And the GI50 (CCRF-CEM leukemia)?
**A.** 0.177 µM

**Q.** What about the TGI (CCRF-CEM leukemia) of the same compound?
**A.** 21.7 µM

**Q.** What about the GI50 (COLO 205 colon) of the same compound?
**A.** 32.5 µM

**Q.** What about the TGI (COLO 205 colon) of the same compound?
**A.** > 100 µM

**Q.** What about the GI50 (DU-145 prostate) of the same compound?
**A.** 56.1 µM

**Q.** What about the TGI (DU-145 prostate) of the same compound?
**A.** > 100 µM

**Q.** What about the GI50 (EKVX NSCLC) of the same compound?
**A.** > 100 µM

**Q.** And the TGI (EKVX NSCLC)?
**A.** > 100 µM

**Q.** What about the GI50 (HCC-2998 colon) of the same compound?
**A.** 27.1 µM

**Q.** And the TGI (HCC-2998 colon)?
**A.** 74 µM

**Q.** What about the GI50 (HCT-116 colon) of the same compound?
**A.** 32.4 µM

**Q.** And the TGI (HCT-116 colon)?
**A.** > 100 µM

**Q.** And the GI50 (HCT-15 colon)?
**A.** > 100 µM

**Q.** And the TGI (HCT-15 colon)?
**A.** > 100 µM

**Q.** What about the GI50 (HL-60(TB) leukemia) of the same compound?
**A.** 0.714 µM

**Q.** And the TGI (HL-60(TB) leukemia)?
**A.** 14 µM

**Q.** And the GI50 (HOP-62 NSCLC)?
**A.** 17.8 µM

**Q.** And the TGI (HOP-62 NSCLC)?
**A.** 39.6 µM

**Q.** What about the GI50 (HOP-92 NSCLC) of the same compound?
**A.** 28.5 µM

**Q.** What about the TGI (HOP-92 NSCLC) of the same compound?
**A.** 80.9 µM

**Q.** What about the TGI (HS 578T breast) of the same compound?
**A.** 29.7 µM

**Q.** And the GI50 (HT29 colon)?
**A.** 28 µM

**Q.** And the TGI (HT29 colon)?
**A.** > 100 µM

**Q.** And the GI50 (IGROV1 ovarian)?
**A.** 37.8 µM

**Q.** And the TGI (IGROV1 ovarian)?
**A.** > 100 µM

**Q.** And the GI50 (K-562 leukemia)?
**A.** 56.2 µM

**Q.** And the TGI (K-562 leukemia)?
**A.** > 100 µM

**Q.** And the GI50 (KM12 colon)?
**A.** > 100 µM

**Q.** What about the TGI (KM12 colon) of the same compound?
**A.** > 100 µM

**Q.** And the GI50 (LOX IMVI melanoma)?
**A.** 39.2 µM

**Q.** And the TGI (LOX IMVI melanoma)?
**A.** > 100 µM

**Q.** What about the GI50 (M14 melanoma) of the same compound?
**A.** 31.8 µM

**Q.** And the TGI (M14 melanoma)?
**A.** > 100 µM

**Q.** What about the GI50 (MALME-3M melanoma) of the same compound?
**A.** 28.7 µM

**Q.** What about the TGI (MALME-3M melanoma) of the same compound?
**A.** 73.7 µM

**Q.** What about the GI50 (MCF7 breast) of the same compound?
**A.** 35.2 µM

**Q.** What about the TGI (MCF7 breast) of the same compound?
**A.** > 100 µM

**Q.** What about the GI50 (MDA-MB-231 breast) of the same compound?
**A.** 23.7 µM

**Q.** What about the TGI (MDA-MB-231 breast) of the same compound?
**A.** 55.9 µM

**Q.** What about the GI50 (MDA-MB-435) of the same compound?
**A.** 27.9 µM

**Q.** What about the TGI (MDA-MB-435) of the same compound?
**A.** 89.3 µM

**Q.** And the GI50 (MOLT-4 leukemia)?
**A.** 17.6 µM

**Q.** What about the TGI (MOLT-4 leukemia) of the same compound?
**A.** 62.1 µM

**Q.** And the GI50 (NCI-H226 lung)?
**A.** 64.1 µM
